{"source": "patent US12521353B1", "about": "“Encapsulated resveratrol (RSV) nanoparticles” (priority 2024, dated 2026)", "format_in_all_cases": "in vivo", "key": {"Bcl-2": {"test_system": "Bcl-2", "experiment": "IHC assay of apoptosis-related factor Bcl-2 in testis of rats exposed to ZEA", "details": "rat testis", "from_the_text": "(§1) As described herein, the therapeutic efficacy of the encapsulated RSV nanoparticles can be evaluated based on immunohistochemical assessment of apoptosis-related factors (Bax and Bcl-2) in the testis and the gene expression of constitutive androstane receptor (CAR), a well-known xenobiotic-sensing nuclear receptor in the liver, of rats exposed to a fungal mycotoxin, zearalenone (ZEA). The encapsulated RSV nanoparticles reversed the toxic effects of the mycotoxin, as reflected by intense Bcl-2 immunoreactivity and negligible Bax immunoreactivity. Further, the expression of the CAR gene was enhanced by treatment with the present RSV nanoparticles.\n(§2) Testes sections stained immunohistochemically against Bcl-2 was noticeably higher (brown color) in control group that received distilled water (FIG. 5A), compared with the group that received 0.1 mg/kg of ZEA that have almost no Bcl-2 immunoreactivity (FIG. 5B). […] High Bcl-2 immunoreactivity was detected in the groups that received 10 mg/kg RSV or 10 mg/kg RSV NPs (FIGS. 5E and 5F)."}, "Bax": {"test_system": "Bax", "experiment": "IHC assay of apoptosis-related factor Bax in testis of rats exposed to ZEA", "details": "rat testis", "from_the_text": "as §1\n(§3) IHC assay was conducted to estimate the toxic impact of ZEA and the ameliorative effect of RSV and its nano-formulation on the expression of apoptosis-related factors (Bax and Bcl-2)."}, "[1]": {"test_system": "apoptosis-related factors (Bax and Bcl-2)", "experiment": "Overall immunohistochemical assessment of apoptosis-related factors (Bax and Bcl-2), mycotoxin-induced apoptosis in rat testis", "details": "testis of rats exposed to ZEA and treated", "from_the_text": "as §1, §3\nas §2, with “5F). […]” for “5F).”"}, "[2]": {"details": "0.1 mg/kg ZEA + 10 mg/kg treatment"}, "[3]": {"details": "10 mg/kg alone, no ZEA, 10 mg/kg"}}, "note": "Entries after “also recorded” stand apart in the source; their conditions may differ.", "data": [{"smiles": "Oc1ccc(C=Cc2cc(O)cc(O)c2)cc1", "note": "[RSV, Resveratrol]", "values": [{"measurement": "Bcl-2 immunoreactivity", "setting": "Bcl-2; [2]", "result": "moderate"}, {"measurement": "Bcl-2 immunoreactivity", "setting": "Bcl-2; [3]", "result": "intense and High"}, {"measurement": "Bax immunoreactivity", "setting": "Bax; [2]", "result": "moderate to low"}, {"measurement": "Bax immunoreactivity", "setting": "Bax; [3]", "result": "negative; also recorded: Almost no"}, {"measurement": "effect on apoptosis induced by the mycotoxin (expression of Bax and Bcl-2 factors)", "setting": "[1]", "result": "effectively reduced"}]}, {"smiles": "C[C@H]1CCCC(=O)CCC/C=C/c2cc(O)cc(O)c2C(=O)O1", "note": "[ZEA, zearalenone]", "values": [{"measurement": "Bcl-2 immunoreactivity", "setting": "Bcl-2; 0.1 mg/kg ZEA alone, 0.1 mg/kg", "result": "weak and almost no"}, {"measurement": "Bax immunoreactivity", "setting": "Bax; 0.1 mg/kg ZEA alone", "result": "intense"}]}]}
